The record followed here is US9801850B2, “Antibacterial agent” (OSAKA UNIVERSITY, priority 2009, dated 2017).

What is called MIC is the least concentration at which growth counts as inhibited.

In one assay the test system is MRSA ATCC43300. Kind of assay: Membrane damaging properties, SYTOX Green fluorescence (Example 4). It is filed as cell-based, Staphylococcus aureus. Conditions: for fluorescence intensity ratio of SYTOX Green (control PBS = 1): 37° C., 15 minutes, EGCG derivative 4-32, EGCG 8-128, NISIN 1-8 μg/ml, FIG. 3. The protocol:
As an antibacterial agent, the EGCG-C16 prepared in Example 1 was used in Example 4; EGCG was used in Comparative Example 4; and membrane-damaging peptide NISIN (MP Biomedicals) was used in a reference example. Antibacterial agent solutions of EGCG-C16 and EGCG were prepared by dissolving them in DMSO so as to achieve top concentrations, respectively. An antibacterial agent solution of the other antibacterial agent was prepared by dissolving it in PBS and diluted with PBS as appropriate. The influence of DMSO used for dissolving the antibacterial agents also was considered.
MSSA ATCC25923 and MRSA ATCC43300 were subjected to shaking culture in MH-broths (Difco) until they reached a late stage in the exponential growth phase. The thus-obtained culture solutions were each centrifuged at 7000 rpm for 10 minutes, and bacterial cells that had settled were suspended in PBS. The suspension of the bacterial cells was added to wells of a 384 black plate, and each of the antibacterial agent solutions was further added thereto and mixed. The resultant mixture was incubated at 37° C. for 15 minutes. Subsequently, a dead cell-staining dye (trade name “SYTOX Green”, LONZA) was mixed in each well so that the concentration thereof became 10 μmol/l, and the resultant mixture was incubated at 37° C. for 10 minutes. The final concentrations of the respective antibacterial agents were as follows: 4, 8, 16, and 32 μg/ml for the EGCG derivative; 8, 16, 32, 64, and 128 μg/ml for EGCG; and 1, 2, 4, and 8 μg/ml for NISIN. […] On the other hand, as a control, the fluorescence intensity was measured in the same manner, except that PBS or 10% DMSO was added instead of the antibacterial agent solutions. Then, regarding each of the MSSA and MRSA, the ratio of the fluorescence intensity when each of the agents was added was calculated assuming that the fluorescence intensity obtained in the control (PBS) was 1.

In assay [1] the test system is Proteus vulgaris ATCC13315. Kind of assay: Antibacterial spectrum MIC (Table 7). The assay is classed as cell-based. The gist of the method: (§1)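 CLSI broth microdilution in Mueller-Hinton broth: compounds were dissolved in DMSO, diluted with sterile water and tested at final 8–512 μg/ml against about 1×10^5 CFU/ml inoculum. After 18 h at 37 °C, the MIC was read and OD600 turbidity was recorded.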

For assay [2], the system named is Pseudomonas aeruginosa ATCC7700. The assay can be described thus: Antibacterial spectrum MIC (Table 7). The assay is classed as cell-based. The gist of the method: as §1

Values after ≈ are worked out from the molar mass of the structure shown.

As for `O=C(O[C@@H]1Cc2c(O)cc(O)cc2O[C@@H]1c1cc(O)c(O)c(O)c1)c1cc(O)c(O)c(O)c1` [EGCG, Epigallocatechin gallate, reference compound], the “fluorescence intensity ratio of SYTOX Green (control PBS = 1)” value in the assay on MRSA ATCC43300 is recorded as “smaller than 1”. The minimum inhibitory concentration (MIC) in assay [1] and in assay [2] was 64 µg/mL (≈ 140 µM) throughout.
On to EGCG-linolate [EGCG-C18DE], for which, in assay [1], the minimum inhibitory concentration (MIC) worked out at 32 µg/mL.
Take EGCG-palmitate [EGCG-C16]: the “fluorescence intensity ratio of SYTOX Green (control PBS = 1)” value in the assay on MRSA ATCC43300 is reported as “very high fluorescence intensity ratio”. For the same compound, the “cell membrane-damaging action at high concentration (SYTOX Green)” value with MRSA ATCC43300 (EGCG-C16 at 64 μg/ml) is on record as “tendency for this action of EGCG-C16 to become weak”.
Consider EGCG-stearate [EGCG-C18], for which the minimum inhibitory concentration (MIC) in assay [2] is 32 µg/mL.
